How the values were obtained:
[1] = system: human pluripotent stem cells; test: Cell density of human pluripotent stem cells after 5 days culture in waste-added medium (cell counter); assay type: cell-based; settings: ammonium chloride added
Experimental: (§1) Onto a 24-well plate (Corning cellBIND Surface: from Corning Incorporated), seeded were 1×10^3 human pluripotent stem cells, to which a medium for pluripotent stem cell (StemFit: from Ajinomoto Co. Inc.) was added, and then cultured. To the medium before 24 hours from the start of culture, a culture substrate (iMatrix-511; from Nippi, Inc.) was added so as to adjust the concentration to 0.5 μg/ml, and also ROCK inhibitor (Y-27632: from FUJIFILM Wako Pure Chemical Corporation) was added so as to adjust the concentration to 10 μM.
After the elapse of 5 days, the number of cells in each well was measured by using TC20 full-automatic cell counter (from Bio-Rad Laboratories, Inc.), to calculate cell density. Results are illustrated in FIG. 5.
Onto a 24-well plate (Corning cellBIND Surface: from Corning Incorporated), seeded were 1×10^3 human pluripotent stem cells, to which a medium for pluripotent stem cell (StemFit: from Ajinomoto Co. Inc.) was added, and then cultured. […]
After the elapse of 5 days, the number of cells in each well was measured by using TC20 full-automatic cell counter (from Bio-Rad Laboratories, Inc.), to calculate cell density. […]

[2] = system: human pluripotent stem cells; test: Optical microscope observation of cells on the 5th day of culture in waste-added medium; assay type: cell-based
Experimental: as §1
The individual cells on the 5th day of culture were observed under an optical microscope. FIG. 6 presents optical microphotographs of the cells cultured in the lactic acid-added medium.
as §1, with “μM. […]” for “μM.”

[3] = system: human pluripotent stem cells; test: Real-time PCR of undifferentiation/differentiation marker gene expression (Oct4, Nanog, T, Pax6, Fox2) on the 6th day of culture; assay type: cell-based; settings: ammonia 2.5 mM
Experimental: mRNA was then extracted from each cell on the 6th day of culture, using RNeasy Mini Kit (from QIAGEN N.V.), and then purified. Next, cDNA was synthesized from the thus purified mRNA, by using QuantiTect Reverse Transcription Kit (from QIAGEN N.V.). By using each cDNA as a template, and by using Thermal Cycler Dice Real Time System I (from Takara Bio Inc.), expression levels of Oct4, Nanog, T, Pax6 and Fox2 genes were measured by real-time PCR.
Proportion of expression levels of the individual genes at the individual concentration levels of ammonia were calculated, on the basis of the expression level at an ammonia concentration of 0 mM. FIG. 10 is a chart summarizing relation between the ammonia concentration and the gene expression levels. […] This confirms that keeping of the ammonia concentration at lower than 2.5 mM is effective to keep the cell in the undifferentiated state. It was also confirmed that the ammonia-induced promotion of cell differentiation may be suppressed more reliably, by keeping the ammonia concentration at 1 mM or below.

[4] = pH of medium after addition of lactic acid (pH-uncorrected group); assay type: physicochemical

Row | Structure (SMILES) | ammonia concentration at which cell density sharply decreases [1] | ammonia concentration at which morphological changes of the cell were observed [2] | expression level of Pax6 gene (ectoderm differentiation marker) relative to level at 0 mM [3] | expression level of T gene (mesoderm differentiation marker) relative to level at 0 mM [3] | pH of the medium ([4]; lactic acid concentration 5.0 mM) | pH of the medium ([4]; lactic acid concentration 7.5 mM) | pH of the medium ([4]; lactic acid concentration 10 mM) | pH of the medium ([4]; lactic acid concentration 15 mM)
1 | N [ammonia] | ≥ 10.0 mM | ≥ 2.5 mM | nearly ten times | nearly ten times | – | – | – | –
2 | CC(O)C(=O)O (centres unmarked) [lactic acid] | – | – | – | – | 6.9 | 6.8 | 6.7 | 6.5

From patent US20210171904A1, “CELL CULTURE METHOD AND CELL CULTURE APPARATUS” (NIKKISO CO., LTD., priority 2018, published 2021)
